According to patent publication US20130136772A1, “REGULATION OF IMMUNE RESPONSE BY COLOCYNTHIN AND/OR ITS DERIVATIVES” (priority 2010, published 2013):
Values joined by “and” are separate entries in the source; they are usually repeats but may differ in a detail not shown here. Equal entries are not always repeated.

Assays:
[1] = tested on: peritoneal murine macrophages; assay: Phagocytosis of heat killed Candida albicans by murine macrophages (in vitro); format: cell-based
Description: The method of Lehrer (1981) [Lehrer, R. I. Ingestion and destruction of Candida albicans. (1981) In: Methods for studying mono-nuclear phagocytes. Eds. Adams, D. O., Edelson, P. J. and Koren, H. (Academic Press, New York) 693-7081 was followed. The percentage and average number of Candida albicans cells (heatkilled) ingested by peritoneal murine macrophages was calculated. AD-B-63B was tested at the doses of 1, 2.5, Sand 10 μg/mL (Table 4).

skin allograft rejection = assay: Skin allograft rejection time; format: in vivo, mice
Description: The modified method of Billingham and Medawar (1951) [[…]] was followed to study the skin allograft rejection time in mice. Graded doses of test material AD-B-63B were administered to the animals for 7 days and graft rejection time (GRT) was recorded by daily observation of epithelial skin layer survival. […] The basic mechanism involved in increase in graft rejection time is the suppression of T lymphocytes. After transplantation, MHC peptide complexes of the foreign organ are recognized by CD4+ and CD8+ T cells of the recipient as non-self antigens. These T cells differentiate into effector T cells and stimulate an immune response. After T cells differentiate and migrate to the site, macrophages and other inflammatory agents are mediated to the site. Cytotoxic T cells (CD8+) lyse the endothelial cells on the graft, CD4+ Th1 activate macrophages and CD4+ Th2 aid in antibody production.

IL-2 = assay: Intracellular IL-2 expression in SRBC immunised mice; format: in vivo, Swiss albino mice; settings: graded doses; most significant suppression at 10 mg/kg p.o.
Description: (§1) Estimation of intracellular cytokines: The animals were immunized as mentioned above. After 6 days of drug administration, the animals were challenged on day 7. After 48 h of challenge, the blood was collected in the tubes containing EDTA (anti-coagulant) from retro-orbital plexes of animals to determine the effect of test material on the expression of intracellular IL-2 and IFN-γ (Th1) and IL-4 (Th2) cytokines. In this study, PE labeled IL-2 monoclonal antibody was used in one set and PE labeled IFN-γ and FITC labelled IL-4 monoclonal antibody was used in the other set of experimentation (FIG. 7, 8, 9).

IL-4 = assay: Intracellular IL-4 expression in SRBC immunised mice; format: in vivo, Swiss albino mice; settings: graded doses; significantly inhibited at 2.5, 5 and 10 mg/kg
Description: as §1

CC(=O)OC(C)(C)/C=C/C(=O)[C@](C)(O)[C@H]1[C@H](O)C[C@@]2(C)[C@@H]3CC=C4[C@@H](C=C(O[C@@H]5O[C@H](CO)[C@@H](O)[C@H](O)[C@H]5O)C(=O)C4(C)C)[C@]3(C)C(=O)C[C@]12C [AD-B-63B, 2-O-β-D-glucopyranosyl cucurbitacin E]
% phagocytosis [in vitro study] Mean ± S.E. ([1]; 1 μg/ml): 24.00 ± 2.32% | percent decrease in phagocytosis ([1]; 1 μg/ml): (10.48%↓) | % phagocytosis [in vitro study] Mean ± S.E. ([1]; 5 μg/ml): 18.22 ± 2.11% | % phagocytosis [in vitro study] Mean ± S.E. ([1]; 10 μg/ml): 17.33 ± 1.42% | GRAFT REJECTION (Percent), delayed (skin allograft rejection; 1 mg/kg p.o.): 16.30% and 16.30↓ % | REJECTION TIME Mean ± S.E. (skin allograft rejection; 1 mg/kg p.o. for 7 days): 15.12 ± 0.11 days | GRAFT REJECTION (Percent), delayed (skin allograft rejection; 5 mg/kg p.o.): 29.23% and 29.23↓ % | REJECTION TIME Mean ± S.E. (skin allograft rejection; 5 mg/kg p.o. for 7 days): 16.80 ± 0.22 days | GRAFT REJECTION (Percent), delayed (skin allograft rejection; 10 mg/kg p.o.): 31.84% and 31.84↓ % | REJECTION TIME Mean ± S.E. (skin allograft rejection; 10 mg/kg p.o. for 7 days): 17.14 ± 0.23 days | expression of intracellular IL-2 (IL-2): decrease | expression of intracellular IL-4 (IL-4): decrease
